The subject of this assay is P. falciparum 3D7. Nature of the assay: P. falciparum growth inhibition assay, 3D7 strain. The assay is classed as cell-based. The conditions noted are these: Plasmodium falciparum, 3D7, 48 h, read-out: EC50 on P. falciparum 3D7. As to the method: P. falciparum strain 3D7, Dd2 and 7G8 were cultured in RPMI media (Invitrogen) supplemented with 0.5% albumax and 4% haematocrit using a protocol described previously [Trager and Jensen (Science,1976; 193:673-675)]. Cultures were synchronized by repeated sorbitol treatment following Lambros and Vanderberg (J Parasitol; 1979; 65:418-420). Each growth inhibition assay was performed in triplicate and the experiment was repeated twice. Each well contained 0.5 ml of complete media [RPMI (invitrogen) with 0.5% albumax], 4% haematocrit and the parasitaemia adjusted to ˜1%; the compound added to the parasite cultures to desired final concentrations (0-100 µM) and same amount of solvent (DMSO) was added to the control wells. The cultures were allowed to grow further for 48 h. Parasite growth was assessed by DNA fluorescent dye-binding assay using SYBR green (Sigma) following Smilkstein et al (Antimicrob Agents Chemother.; 2004, 48, 1803-1806). • f) In Vitro Toxicity Assay on CHO Cells

What is called EC50 is the midpoint of the concentration-response curve. As to `CCOP(=O)(/C=C/[C@H](NC(=O)[C@H](Cc1ccccc1)NC(=O)[C@H](CO[C@H]1O[C@@H]2O[C@@]3(C)CC[C@H]4[C@H](C)CC[C@@H]([C@H]1C)[C@@]24OO3)NC(=O)OCc1ccccc1)c1ccccc1)OCC` [Compound 2b, Benzyl ((S)-1-(((S)-1-(((S,E)-3-(diethoxyphosphoryl)-1-phenylallyl)amino)-1-oxo-3-phenylpropan-2-yl)amino)-1-oxo-3-(((3R,5aS,6R,8aS,9R,10S,12R,12aR)-3,6,9-trimethyldeca hydro-12H-3,12-epoxy[1,2]dioxepino[4,3-i]isochromen-10-yl)oxy)propan-2-yl)carbamate], the EC50 was determined as 2.03 nM.

As for `CCOP(=O)(/C=C/[C@H](NC(=O)[C@H](CC(C)C)NC(=O)[C@H](CO[C@H]1O[C@@H]2OC3(C)CC[C@H]4[C@H](C)CC[C@@H]([C@H]1C)[C@@]24OO3)NC(=O)OCc1ccccc1)c1ccccc1)OCC` (stereo in doubt) [Compound 3b, Benzyl ((S)-1-(((S)-1-(((S,E)-3-(diethoxyphosphoryl)-1-phenylallyl)amino)-4-methyl-1-oxopentan-2-yl)amino)-1-oxo-3-(((3R,5aS,6R,8aS,9R,10S,12R,12aR)-3,6,9-trimethyldeca hydro-12H-3,12-epoxy[1,2]dioxepino[4,3-i]isochromen-10-yl)oxy)propan-2-yl)carbamate], the EC50 was determined as 16.7 nM.

With `CCOP(=O)(/C=C/[C@@H](NC(=O)[C@H](CC(C)C)NC(=O)[C@H](CO[C@H]1O[C@@H]2OC3(C)CC[C@H]4[C@H](C)CC[C@@H]([C@H]1C)[C@@]24OO3)NC(=O)OCc1ccccc1)c1ccccc1)OCC` (stereo in doubt) [Compound 3a, Benzyl ((S)-1-(((S)-1-(((R,E)-3-(diethoxyphosphoryl)-1-phenylallyl)amino)-4-methyl-1-oxopentan-2-yl)amino)-1-oxo-3-(((3R,5aS,6R,8aS,9R,10S,12R,12aR)-3,6,9-trimethyldeca hydro-12H-3,12-epoxy[1,2]dioxepino[4,3-i]isochromen-10-yl)oxy)propan-2-yl)carbamate], the EC50 stood at 10.9 nM.

Regarding `CCOP(=O)(/C=C/[C@H](NC(=O)[C@H](CC(C)C)NC(=O)[C@@H]1C[C@@H](O[C@H]2O[C@@H]3OC4(C)CC[C@H]5[C@H](C)CC[C@@H]([C@H]2C)[C@@]35OO4)CN1C(=O)OCc1ccccc1)c1ccccc1)OCC` (stereo in doubt) [Compound 5b, Benzyl (2S,4R)-2-(((S)-1-(((S,E)-3-(diethoxyphosphoryl)-1-phenylallyl)amino)-4-methyl-1-oxopentan-2-yl)carbamoyl)-4-(((3R,5aS,6R,8aS,9R,10S,12R,12aR)-3,6,9-trimethyldeca hydro-12H-3,12-epoxy[1,2]dioxepino[4,3-i]isochromen-10-yl)oxy)pyrrolidine-1-carboxylate], the EC50 was 6.12 nM.

In the case of `CCOP(=O)(/C=C/[C@@H](NC(=O)[C@H](CC(C)C)NC(=O)[C@@H]1C[C@@H](O[C@H]2O[C@@H]3OC4(C)CC[C@H]5[C@H](C)CC[C@@H]([C@H]2C)[C@@]35OO4)CN1C(=O)OCc1ccccc1)c1ccccc1)OCC` (stereo in doubt) [Compound 5a, Benzyl (2S,4R)-2-(((S)-1-(((R,E)-3-(diethoxyphosphoryl)-1-phenylallyl)amino)-4-methyl-1-oxopentan-2-yl)carbamoyl)-4-(((3R,5aS,6R,8aS,9R,10S,12R,12aR)-3,6,9-trimethyldeca hydro-12H-3,12-epoxy[1,2]dioxepino[4,3-i]isochromen-10-yl)oxy)pyrrolidine-1-carboxylate], the EC50 came out at 1.04 nM.

The values are drawn from patent publication US11365202B2, “Antimalarial compounds, process for preparation and their use for drug resistant malaria” (Council of Scientific and Industrial Research, priority 2018, dated 2022).
